Measurements published in article PMC7413254 (Nature Communications, 2020).
Where “and” joins values, the source holds several entries; their conditions need not be identical. Equal values may be shown once. Read-outs that look alike come from different tables or passages of the source.

Experiments:
7G8 strain = assay: P. falciparum proliferation assay; format: cell-based, Plasmodium falciparum
Experimental: (§1) Parasite proliferation was measured in 96-well plates using a fluorescent DNA-intercalating dye[68],[69]. Synchronous ring-stage parasite cultures (~1% haematocrit and 1% parasitaemia) were incubated with different concentrations of the test compound for 72 h at 37 °C and under reduced O2 conditions. The assay was terminated by freezing and thawing the samples, after which 100 μL of SYBR Safe DNA Gel Stain (Molecular Probes; 0.2 μL/mL) in a lysis buffer (20 mM Tris-HCl, 5 mM EDTA, 0.008% (w/v) saponin and 0.08% (v/v) Triton X-100; pH 7.5) was added to each well. The fluorescence from each well was measured using a Tecan Infinite M1000 PRO microplate reader (excitation wavelength 490 nm; emission wavelength 520 nm). The fluorescence values for the wells containing the highest concentration of the compound were averaged and this value was then subtracted from each of the well values obtained for that 96-well plate. The level of parasite proliferation in the presence of each compound concentration was expressed as a percentage of the proliferation measured in the absence of the compound. The IC50s were determined in SigmaPlot Windows Version 11.0 by a least-squares fit of the equation y = a/[1 + ([compound]/IC50)^c] to the data, where y is the percent parasite proliferation, a is the maximum change in the percent parasite proliferation, and c is a fitted constant. In all cases, five independent experiments were performed (on different days), and within each experiment measurements were averaged from three replicates.

C6^7G8 parasites = assay: P. falciparum proliferation assay; format: cell-based, Plasmodium falciparum
Experimental: as §1

C4^Dd2 parasites = assay: P. falciparum proliferation assay; format: cell-based, Plasmodium falciparum
Experimental: as §1

3D7 strain = assay: P. falciparum proliferation assay; format: cell-based, Plasmodium falciparum
Experimental: as §1

C2^GC03 parasites = assay: P. falciparum proliferation assay; format: cell-based; details: Plasmodium falciparum
Experimental: as §1

Dd2 strain = assay: P. falciparum proliferation assay; format: cell-based, Plasmodium falciparum
Experimental: as §1

PfNT1 = target: T1, PfNT1 (Plasmodium falciparum, UniProt Q8IDM6); format: cell-based
T1 construct: expressed in transfected cells; host or cells: Xenopus laevis oocytes (stage V-VI), cRNA-injected
T1 sequence (Q8IDM6 whole entry): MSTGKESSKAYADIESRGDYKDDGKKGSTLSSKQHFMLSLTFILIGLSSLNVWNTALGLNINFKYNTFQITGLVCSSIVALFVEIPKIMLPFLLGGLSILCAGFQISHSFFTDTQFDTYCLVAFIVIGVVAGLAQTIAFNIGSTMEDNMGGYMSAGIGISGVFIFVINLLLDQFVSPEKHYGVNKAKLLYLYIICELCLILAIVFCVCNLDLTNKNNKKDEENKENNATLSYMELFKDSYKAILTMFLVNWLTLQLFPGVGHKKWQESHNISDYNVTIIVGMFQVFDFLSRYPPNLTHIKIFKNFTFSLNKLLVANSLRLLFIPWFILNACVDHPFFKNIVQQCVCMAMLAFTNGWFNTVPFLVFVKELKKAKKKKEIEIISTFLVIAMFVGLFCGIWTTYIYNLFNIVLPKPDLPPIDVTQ
Experimental: (§2) Measurements of the cis-inhibition of [^3H]CQ transport via PfCRT^Dd2 or PfCRT^Ecu1110 by a test solute (data presented in Fig. 1 and Supplementary Data 1,2) were performed on oocytes three days post-cRNA-injection[15],[21]. Ten oocytes were washed twice with the relevant ND96 buffer. The assay commenced with the addition of ND96 buffer supplemented with 0.25 μM [^3H]CQ, 15 μM unlabelled CQ, and the unlabelled solute under study (at a concentration specified in the figure legends and Supplementary Data 1, 2). The assay was terminated by removing the reaction buffer and washing the oocytes with ice-cold ND96 buffer. The oocytes were lysed in 10% (w/v) sodium dodecyl sulfate (SDS) and the radioactivity accumulated within each oocyte was measured with a MicroBeta^2 microplate liquid scintillation analyser (PerkinElmer).
(§3) Measurements of the uptake or efflux of a number of other radiolabelled compounds (Fig. 3k; Supplementary Fig. 3) were performed using the methods described above for [^3H]CQ and [^3H]VF-6, respectively.

non-expressing oocytes = format: cell-based, Xenopus laevis
Experimental: as §2, §3

[1] = Plasmodium falciparum, 72 h, read-out: IC50 (μM), parasite proliferation, Control, SEM
[2] = read-out: IC50 (μM), parasite proliferation, + 1 μM VP, 7G8, + 1 μM verapamil, 72 h, mean ± SEM, n = 5
[3] = Plasmodium falciparum, C67G8, 72 h, 37 °C, SYBR Safe, mean ± SEM, n = 5, read-out: IC50 (μM), parasite proliferation, Control
[4] = read-out: IC50 (μM), parasite proliferation, + 1 μM VP, C67G8, + 1 μM verapamil, 72 h, mean ± SEM, n = 5
[5] = Plasmodium falciparum, DD2, C4Dd2, 72 h, 37 °C, SYBR Safe, mean ± SEM, n = 5, read-out: IC50 (μM), parasite proliferation, Control
[6] = Plasmodium falciparum, 3D7, 72 h, 37 °C, SYBR Safe, mean ± SEM, n = 5, read-out: IC50 (μM), parasite proliferation, Control
[7] = read-out: IC50 (μM), parasite proliferation, + 1 μM VP, SEM
[8] = 72 h, read-out: IC50 (μM), parasite proliferation, + 1 μM VP, SEM
[9] = C2GC03, 72 h, 37 °C, SYBR Safe, mean ± SEM, n = 5, read-out: IC50 (μM), parasite proliferation, Control

SMILES | IC50 (7G8 strain; [1]) | IC50 (7G8 strain; [2]) | IC50 (C6^7G8 parasites; [3]) | IC50 (C6^7G8 parasites; [4]) | IC50 (C4^Dd2 parasites; [5]) | IC50 (3D7 strain; [6]) | IC50 (3D7 strain; [7]) | IC50 (C2^GC03 parasites; [8]) | IC50 (C2^GC03 parasites; [9]) | IC50 (Dd2 strain; Plasmodium falciparum, DD2, 72 h, read-out: IC50 (μM), parasite proliferation, Control, SEM) | IC50 (Dd2 strain; read-out: IC50 (μM), parasite proliferation, + 1 μM VP, Dd2, + 1 μM verapamil, 72 h, mean ± SEM, n = 5) | IC50 (C4^Dd2 parasites; read-out: IC50 (μM), parasite proliferation, + 1 μM VP, C4Dd2, + 1 μM verapamil, 72 h, mean ± SEM, n = 5) | [3H]hypoxanthine transport into the oocyte, PfNT1 (PfNT1) | [3H]hypoxanthine transport into the oocyte, non-expressing oocytes (non-expressing oocytes)
CC(C)(C)NC(=O)[C@@H]1CN(Cc2cccnc2)CCN1C[C@@H](O)C[C@@H](Cc1ccccc1)C(=O)N[C@H]1c2ccccc2C[C@H]1O [Indinavir, indinavir] | 2.5 ± 0.2 µM | 0.5 ± 0.06 µM | 1.1 ± 0.05 µM | 0.4 ± 0.02 µM | 2.2 ± 0.1 µM | 4.1 ± 0.1 µM | 2.1 ± 0.8 µM | 1.2 ± 0.8 µM | 4.2 ± 0.2 µM | – | – | – | – | –
Cc1c(O)cccc1C(=O)N[C@@H](CSc1ccccc1)[C@H](O)CN1C[C@H]2CCCC[C@H]2C[C@H]1C(=O)NC(C)(C)C [Nelfinavir, nelfinavir] | 7.3 ± 0.6 µM | 3.1 ± 0.3 µM | 6.2 ± 0.3 µM | 1.4 ± 0.1 µM | 4.1 ± 0.1 µM | 15.3 ± 1.2 µM | 5.6 ± 0.8 µM | 4.6 ± 0.3 µM | 13.1 ± 0.8 µM | 5.7 ± 0.5 µM | 0.5 ± 0.02 µM | 0.7 ± 0.03 µM | – | –
O=c1[nH]cnc2nc[nH]c12 [[3H]hypoxanthine] | – | – | – | – | – | – | – | – | – | – | – | – | 100 % PfNT1 | 12.63 % PfNT1 and 13.63 % PfNT1 and 15.33 % PfNT1 and 10.43 % PfNT1 and 11.43 % PfNT1
